Results on 11 compounds are retold here after patent US20240417411A1, “COMPOUNDS AND METHODS FOR TREATMENT OF VIRAL INFECTIONS” (priority 2023, published 2024).

The test system of one series is SARS-CoV2-NLuc. Briefly: microbe, parasite or virus in culture. It is filed as cell-based, SARS Coronavirus 2. Particulars: Severe acute respiratory syndrome coronavirus 2, 48 h, read-out: SARS-CoV2 EC50 (nM).
In another series the test system is RSV-Luc5. Briefly: microbe, parasite or virus in culture. Type of series: cell-based. Particulars: human respiratory syncytial virus, NHBE, 72 h, read-out: RSV NHBE EC50 (nM).
Series [1] can be described thus: in vitro. Particulars: human. Type of series: cell-based. As to the method:
Example C: CC50 MT4 Cytotoxicity of the compounds was determined in uninfected cells using the cell viability reagent in a similar fashion as described before for other cell types ([…] et al., Antimicrob Agents Chemother. 2008,52(2):655-65). […] Cells were cultured for 4-5 days at 37° C. Following the incubation, the cells were allowed to equilibrate to 25° C., and cell viability was determined by adding Cell-Titer Glo viability reagent. The mixture was incubated for 10 min, and the luminescence signal was quantified using an Envision plate reader. Untreated cell and cells treated at 2 μM puromycin (Sigma, St. Louis, MO) serve as 100% and 0% cell viability control, respectively. The percent of cell viability was calculated for each tested compound concentration relative to the 0% and 100% controls and the CC50 value was determined by non-linear regression as a compound concentration reducing the cell viability by 50%.

Series [2] in a line: in vitro. It is filed as in vitro ADME. Particulars: human, s9, pH 7.4. As to the method: Example D: GI S9 Stability […] The S9 metabolic reactions were initiated by the addition of the substrates to the S9 reaction mixture to a final concentration of 2 μM. […] Aliquots ([…]) of the diluted supernatant were analyzed on a Thermo Q-Exactive mass spectrometer as described below. Example F: Liquid Chromatography/Mass Spectroscopy Methods for S9 and Plasma Stability Quantification of test compounds, Reference Compound A (S9 stability assay nucleoside metabolite), and controls was performed by analyte/internal standard peak area ratio (PAR) values measured on a Thermo Q-Exactive mass spectrometer coupled to a Dionex UltiMate 3000 HPLC with a Leap Technologies HTC PAL autosampler. […] Mobile phase A consisted of 0.1% (v/v) formic acid in water. Mobile phase B consisted of 0.1% (v/v) formic acid in acetonitrile. Elution of analytes was achieved by a series of linear gradients of acetonitrile in water containing 0.10% (v/v) formic acid. The mass spectrometer was calibrated on a weekly basis and mass tolerance of 5 ppm was used.

Series [3] is described as follows: in vitro. Particulars: human, plasma.
Series [4] relates to Caco-2 cells (clone C2BBe1). As to conditions: human, Caco-2.

Usually EC50 stands for the concentration giving half of the maximal effect. Broadly, the CC50 is the concentration at which the toxic effect on the cells reaches its halfway point. Read a high CC50 as lower toxicity to the cells. For orientation: half-life means the time needed for the level to fall by half in the phase considered. High values mean slow loss, low ones fast loss. With `CC1(C)CC(=O)O[C@H]2[C@@H](OC(=O)C1)[C@](C#N)(c1ccc3c(N)ncnn13)O[C@@H]2COC(=O)OC1CCCC1` [Compound C37, ((7aR,8R,10R,10aR)-10-(4-aminopyrrolo[2,1-f][1,2,4]triazin-7-yl)-10-cyano-4,4-dimethyl-2,6-dioxooctahydro-2H-furo[3,4-b][1,4]dioxonin-8-yl)methyl cyclopentyl carbonate], the EC50 with SARS-CoV2-NLuc and in the series on RSV-Luc5 was over 50000 nM each time. For the same compound, the CC50 in the series “in vitro [1]” is over 50 µM. In addition, the half-life at 2 μM in the series “in vitro [2]” worked out at 5.15 min; in the series “in vitro [3]”, 300 min.
`CC(C)COC(=O)OC[C@H]1O[C@@](C#N)(c2ccc3c(N)ncnn23)[C@@H]2OC(=O)CCCC(=O)O[C@@H]21` [Compound C18, ((7aR,8R,10R,10aR)-10-(4-aminopyrrolo[2,1-f][1,2,4]triazin-7-yl)-10-cyano-2,6-dioxooctahydro-2H-furo[3,4-b][1,4]dioxonin-8-yl)methyl isobutyl carbonate]: the values for the EC50 in the series with SARS-CoV2-NLuc and with RSV-Luc5 were 1780 nM and 8490 nM, respectively. The CC50 in the series “in vitro [1]” is over 50 µM. For the same compound, the half-life at 2 μM came to 0.724 min in “in vitro [2]” and 7.57 min in the series “in vitro [3]”.
For `CC1(C)CC(=O)O[C@H]2[C@@H](OC(=O)C1)[C@](C#N)(c1ccc3c(N)ncnn13)O[C@@H]2COC(=O)OCC1(C#N)CC1` [Compound C41, ((7aR,8R,10R,10aR)-10-(4-aminopyrrolo[2,1-f][1,2,4]triazin-7-yl)-10-cyano-4,4-dimethyl-2,6-dioxooctahydro-2H-furo[3,4-b][1,4]dioxonin-8-yl)methyl ((1-cyanocyclopropyl)methyl) carbonate], the EC50 in the series on SARS-CoV2-NLuc was over 50000 nM. Moreover, in the series with RSV-Luc5, the EC50 is over 50000 nM. The CC50 in the series “in vitro [1]” was over 50 µM. Moreover, the half-life at 2 μM in the series “in vitro [2]” came to 4.17 min. In series [4], the “Caco2 A to B” value amounted to 0.54 and the “Caco2 B to A” value worked out at 6.77.
For the compound `CCOC(=O)[C@@H]1[C@H](OC(=O)OC[C@H]2O[C@@](C#N)(c3ccc4c(N)ncnn34)[C@@H]3OC(=O)CCCC(=O)O[C@@H]32)CCN1C` [Compound C32, ethyl (2S,3R)-3-(((((7aR,8R,10R,10aR)-10-(4-aminopyrrolo[2,1-f][1,2,4]triazin-7-yl)-10-cyano-2,6-dioxooctahydro-2H-furo[3,4-b][1,4]dioxonin-8-yl)methoxy)carbonyl)oxy)-1-methylpyrrolidine-2-carboxylate], the EC50 in the series on SARS-CoV2-NLuc stood at 4970 nM; in the series on RSV-Luc5, 7650 nM. The CC50 in the series “in vitro [1]” was over 50 µM. Moreover, the half-life at 2 μM in the series “in vitro [2]” came to 0.566 min; in the series “in vitro [3]”, 30.9 min.
`CC1(C)CC(=O)O[C@H]2[C@@H](OC(=O)C1)[C@](C#N)(c1ccc3c(N)ncnn13)O[C@@H]2COC(=O)OC(CF)CF` [Compound C44, ((7aR,8R,10R,10aR)-10-(4-aminopyrrolo[2,1-f][1,2,4]triazin-7-yl)-10-cyano-4,4-dimethyl-2,6-dioxooctahydro-2H-furo[3,4-b][1,4]dioxonin-8-yl)methyl (1,3-difluoropropan-2-yl) carbonate]: the EC50 in the series with SARS-CoV2-NLuc and with RSV-Luc5 was over 50000 nM each time. This compound also came in with a CC50 in the series “in vitro [1]” of over 50 µM. Also, the half-life at 2 μM in the series “in vitro [2]” came to 1.22 min; in “in vitro [3]” it was 133 min.
`COC(C)(C)COC(=O)OC[C@H]1O[C@@](C#N)(c2ccc3c(N)ncnn23)[C@@H]2OC(=O)CC(C)(C)CC(=O)O[C@@H]21` [Compound C39, ((7aR,8R,10R,10aR)-10-(4-aminopyrrolo[2,1-f][1,2,4]triazin-7-yl)-10-cyano-4,4-dimethyl-2,6-dioxooctahydro-2H-furo[3,4-b][1,4]dioxonin-8-yl)methyl (2-methoxy-2-methylpropyl) carbonate]: the EC50 in the series with SARS-CoV2-NLuc is 8580 nM. Besides, the EC50 in the series on RSV-Luc5 is over 50000 nM. This compound also had a CC50 in the series “in vitro [1]” of over 50 µM. Moreover, the half-life at 2 μM in “in vitro [2]” was determined as 9.97 min. For the same compound, in series [4], the “Caco2 A to B” value is reported as 2 and the “Caco2 B to A” value is on record as 7.17.
As to `CC(C)(C)COC(=O)OC[C@H]1O[C@@](C#N)(c2ccc3c(N)ncnn23)[C@@H]2OC(=O)CCCC(=O)O[C@@H]21` [Compound C29, ((7aR,8R,10R,10aR)-10-(4-aminopyrrolo[2,1-f][1,2,4]triazin-7-yl)-10-cyano-2,6-dioxooctahydro-2H-furo[3,4-b][1,4]dioxonin-8-yl)methyl neopentyl carbonate], the EC50 worked out at 2220 nM in the series on SARS-CoV2-NLuc and 4660 nM in the series with RSV-Luc5. For the same compound, in “in vitro [1]”, the CC50 was over 50 µM. Besides, the half-life at 2 μM in the series “in vitro [2]” is 0.587 min; in the series “in vitro [3]” it was 12.1 min.
Regarding `N#C[C@@]1(c2ccc3c(N)ncnn23)O[C@H](COC(=O)C2CCC2)[C@H]2OC(=O)CCCC(=O)O[C@H]21` [Compound C57, ((7aR,8R,10R,10aR)-10-(4-aminopyrrolo[2,1-f][1,2,4]triazin-7-yl)-10-cyano-2,6-dioxooctahydro-2H-furo[3,4-b][1,4]dioxonin-8-yl)methyl cyclobutanecarboxylate], the EC50 with SARS-CoV2-NLuc was determined as 3000 nM; in the series with RSV-Luc5 it was 3780 nM. Besides, in the series “in vitro [1]”, the CC50 was over 50 µM. This compound came in with a half-life at 2 μM in “in vitro [3]” of 7.33 min.
Take `CCOC(=O)[C@@H]1[C@H](OC(=O)OC[C@H]2O[C@@](C#N)(c3ccc4c(N)ncnn34)[C@@H]3OC(=O)CC(C)(C)CC(=O)O[C@@H]32)CCN1C` [Compound C49, ethyl (2S,3R)-3-(((((7aR,8R,10R,10aR)-10-(4-aminopyrrolo[2,1-f][1,2,4]triazin-7-yl)-10-cyano-4,4-dimethyl-2,6-dioxooctahydro-2H-furo[3,4-b][1,4]dioxonin-8-yl)methoxy)carbonyl)oxy)-1-methylpyrrolidine-2-carboxylate]: the EC50 in the series on SARS-CoV2-NLuc and with RSV-Luc5 was over 50000 nM each time. In “in vitro [1]”, this compound had a CC50 of over 50 µM. The half-life at 2 μM turned out to be 7.81 min in the series “in vitro [2]” and 42.5 min in “in vitro [3]”.
For `CC(C)COC(=O)OC[C@H]1O[C@@](C#N)(c2ccc3c(N)ncnn23)[C@@H]2OC(=O)CC(C)(C)CC(=O)O[C@@H]21` [Compound C35, ((7aR,8R,10R,10aR)-10-(4-aminopyrrolo[2,1-f][1,2,4]triazin-7-yl)-10-cyano-4,4-dimethyl-2,6-dioxooctahydro-2H-furo[3,4-b][1,4]dioxonin-8-yl)methyl isobutyl carbonate], the EC50 with SARS-CoV2-NLuc and with RSV-Luc5 was over 50000 nM in each case. In addition, the CC50 in the series “in vitro [1]” was over 50 µM. The figures for the half-life at 2 μM in the series “in vitro [2]” and in “in vitro [3]” were 0.609 min and 73.6 min, respectively.
Take `CCOC(=O)C(C)(C)OC(=O)OC[C@H]1O[C@@](C#N)(c2ccc3c(N)ncnn23)[C@@H]2OC(=O)CC(C)(C)CC(=O)O[C@@H]21` [Compound C43, ethyl 2-(((((7aR,8R,10R,10aR)-10-(4-aminopyrrolo[2,1-f][1,2,4]triazin-7-yl)-10-cyano-4,4-dimethyl-2,6-dioxooctahydro-2H-furo[3,4-b][1,4]dioxonin-8-yl)methoxy)carbonyl)oxy)-2-methylpropanoate]: the EC50 in the series with SARS-CoV2-NLuc is over 50000 nM. In addition, the EC50 in the series with RSV-Luc5 was over 50000 nM. Besides, the CC50 in “in vitro [1]” was over 50 µM. This compound yielded a half-life at 2 μM in “in vitro [2]” of 19.7 min. Further, in series [4], the “Caco2 A to B” value came out at 2.93 and the “Caco2 B to A” value was 11.62.
